# Measured values from paper PMC5218480 (PLoS ONE, 2017).
# Test system: MV-4-11 cells
# Assay: Gene expression microarray analysis (Affymetrix PrimeView) and GSEA
# Type: cell-based, human
# Parameters: RFU PODN (11730768_x_at) / Fold change /veh PODN (11730768_x_at) / RFU LINC00158 (11744669_a_at) / Fold change /veh LINC00158 (11744669_a_at) / RFU DUSP10 (11751237_a_at) / Fold change /veh DUSP10 (11751237_a_at) / RFU ID3 (11757404_x_at) / Fold change /veh ID3 (11757404_x_at) / RFU PLEKHG5 (11737974_s_at) / Fold change /veh PLEKHG5 (11737974_s_at) / RFU LRRC4B (11730491_at) / Fold change /veh LRRC4B (11730491_at) / RFU GIMAP4 (11747438_a_at) / Fold change /veh GIMAP4 (11747438_a_at) / RFU KRT8 (11758183_x_at) / Fold change /veh KRT8 (11758183_x_at) / RFU CNN1 (11734310_a_at) / Fold change /veh CNN1 (11734310_a_at) / RFU VPS37D (11726825_at) / Fold change /veh VPS37D (11726825_at) / RFU C10orf10 (11716522_x_at) / Fold change /veh C10orf10 (11716522_x_at) / RFU KIR2DL2 /// KIR2DL4 /// KIR2DL5A /// KIR2DL5B /// KIR2DS1 /// KIR2DS2 /// KIR2DS3 /// KIR2DS4 /// KIR3DL3 /// KIR3DL3 /// KIR3DS1 (11738374_at) / Fold change /veh KIR2DL2 /// KIR2DL4 /// KIR2DL5A /// KIR2DL5B /// KIR2DS1 /// KIR2DS2 /// KIR2DS3 /// KIR2DS4 /// KIR3DL3 /// KIR3DL3 /// KIR3DS1 (11738374_at) / RFU C1QL1 (11718748_at) / Fold change /veh C1QL1 (11718748_at) / RFU TMPRSS4 (11747572_a_at) / Fold change /veh TMPRSS4 (11747572_a_at) / RFU HAMP (11756126_x_at) / Fold change /veh HAMP (11756126_x_at) / RFU RNFT2 (11725882_a_at) / Fold change /veh RNFT2 (11725882_a_at) / RFU NR4A2 (11747474_a_at) / Fold change /veh NR4A2 (11747474_a_at) / RFU ABCC12 (11746883_a_at) / Fold change /veh ABCC12 (11746883_a_at) / RFU TMEM136 (11760407_x_at) / Fold change /veh TMEM136 (11760407_x_at) / RFU CLDN22 /// WWC2 (11732394_at) / Fold change /veh CLDN22 /// WWC2 (11732394_at) / RFU HLA-DPB1 (11760878_x_at) / Fold change /veh HLA-DPB1 (11760878_x_at) / RFU SPINT1 (11716480_a_at) / Fold change /veh SPINT1 (11716480_a_at) / RFU GAP43 (11754022_s_at) / Fold change /veh GAP43 (11754022_s_at) / RFU A4GNT (11735810_at) / Fold change /veh A4GNT (11735810_at) / RFU PRB3 (11715151_x_at) / Fold change /veh PRB3 (11715151_x_at) / RFU TUBB4B (11761932_at) / Fold change /veh TUBB4B (11761932_at) / RFU CAPN14 (11732068_a_at) / Fold change /veh CAPN14 (11732068_a_at) / RFU TMCC2 (11721928_a_at) / Fold change /veh TMCC2 (11721928_a_at) / RFU IRGQ (11745062_a_at) / Fold change /veh IRGQ (11745062_a_at) / RFU FAM174B (11720279_a_at) / Fold change /veh FAM174B (11720279_a_at) / RFU TMPRSS4 (11748680_a_at) / Fold change /veh TMPRSS4 (11748680_a_at) / RFU FAM212B (11763350_a_at) / Fold change /veh FAM212B (11763350_a_at) / RFU PLEKHG5 (11743358_a_at) / Fold change /veh PLEKHG5 (11743358_a_at) / RFU ZSCAN30 (11745921_a_at) / Fold change /veh ZSCAN30 (11745921_a_at) / RFU CMKLR1 (11741424_a_at) / Fold change /veh CMKLR1 (11741424_a_at) / RFU LOC101060620 /// MAPK8IP1 (11723275_at) / Fold change /veh LOC101060620 /// MAPK8IP1 (11723275_at) / RFU SPTSSB (11747773_x_at) / Fold change /veh SPTSSB (11747773_x_at) / RFU PRSS12 (11739890_at) / Fold change /veh PRSS12 (11739890_at) / RFU BIN1 (11741810_x_at) / Fold change /veh BIN1 (11741810_x_at) / RFU WNT11 (11732464_a_at) / Fold change /veh WNT11 (11732464_a_at) / RFU C10orf10 (11716521_a_at) / Fold change /veh C10orf10 (11716521_a_at) / RFU C5orf56 (11738089_at) / Fold change /veh C5orf56 (11738089_at) / RFU CYB561 (11721691_x_at) / Fold change /veh CYB561 (11721691_x_at) / RFU ANKRD19P (11752326_a_at) / Fold change /veh ANKRD19P (11752326_a_at) / RFU OR2T12 /// OR2T33 /// OR2T8 (11738714_s_at) / Fold change /veh OR2T12 /// OR2T33 /// OR2T8 (11738714_s_at) / RFU VCAN (11748164_a_at) / Fold change /veh VCAN (11748164_a_at) / RFU JSRP1 (11732532_at) / Fold change /veh JSRP1 (11732532_at) / RFU KRTAP10-11 (11738290_x_at) / Fold change /veh KRTAP10-11 (11738290_x_at) / RFU MYO3A (11730013_a_at) / Fold change /veh MYO3A (11730013_a_at) / RFU EBF3 (11725865_a_at) / Fold change /veh EBF3 (11725865_a_at) / RFU CAMK2N1 (11719241_x_at) / Fold change /veh CAMK2N1 (11719241_x_at) / RFU C5orf56 (11738088_a_at) / Fold change /veh C5orf56 (11738088_a_at) / RFU OLFML3 (11715873_a_at) / Fold change /veh OLFML3 (11715873_a_at) / RFU LOC100653217 /// NTM (11731650_a_at) / Fold change /veh LOC100653217 /// NTM (11731650_a_at) / RFU MAPK11 (11762145_a_at) / Fold change /veh MAPK11 (11762145_a_at) / RFU FIZ1 (11724087_x_at) / Fold change /veh FIZ1 (11724087_x_at) / RFU OASL (11726364_x_at) / Fold change /veh OASL (11726364_x_at) / RFU SOX15 (11748057_x_at) / Fold change /veh SOX15 (11748057_x_at) / RFU CD79A (11719716_a_at) / Fold change /veh CD79A (11719716_a_at) / RFU HIST1H1D (11736915_at) / Fold change /veh HIST1H1D (11736915_at) / RFU CASKIN2 (11723855_a_at) / Fold change /veh CASKIN2 (11723855_a_at) / RFU LOC730098 (11760151_x_at) / Fold change /veh LOC730098 (11760151_x_at) / RFU OR4N2 (11742367_at) / Fold change /veh OR4N2 (11742367_at) / RFU PRRT2 (11749266_a_at) / Fold change /veh PRRT2 (11749266_a_at) / RFU SNX32 (11753110_a_at) / Fold change /veh SNX32 (11753110_a_at) / RFU CDHR5 (11726645_a_at) / Fold change /veh CDHR5 (11726645_a_at) / RFU RCAN1 (11760418_a_at) / Fold change /veh RCAN1 (11760418_a_at) / RFU FAM167A (11723789_a_at) / Fold change /veh FAM167A (11723789_a_at) / RFU FAM26E (11764081_at) / Fold change /veh FAM26E (11764081_at) / RFU ISYNA1 (11749810_s_at) / Fold change /veh ISYNA1 (11749810_s_at) / RFU ACY1 (11761880_at) / Fold change /veh ACY1 (11761880_at) / RFU 11764098_at / Fold change /veh 11764098_at / RFU SAMD14 (11745864_x_at) / Fold change /veh SAMD14 (11745864_x_at) / RFU NPB (11741838_a_at) / Fold change /veh NPB (11741838_a_at) / RFU TMPRSS6 (11731388_a_at) / Fold change /veh TMPRSS6 (11731388_a_at) / RFU KRTAP10-2 (11738614_at) / Fold change /veh KRTAP10-2 (11738614_at) / RFU ARHGAP8 /// PRR5-ARHGAP8 (11727945_x_at) / Fold change /veh ARHGAP8 /// PRR5-ARHGAP8 (11727945_x_at) / RFU KRTAP5-7 /// NADSYN1 (11734609_at) / Fold change /veh KRTAP5-7 /// NADSYN1 (11734609_at) / RFU RASL12 (11751679_a_at) / Fold change /veh RASL12 (11751679_a_at) / RFU CDKN2B (11736163_a_at) / Fold change /veh CDKN2B (11736163_a_at) / RFU PRF1 (11729649_at) / Fold change /veh PRF1 (11729649_at) / RFU, ZNF638 /// ZNF638-IT1 / Fold change vs veh, ZNF638 /// ZNF638-IT1 / RFU, PANK3 / Fold change vs veh, PANK3 / RFU, SH3YL1 / Fold change vs veh, SH3YL1 / RFU, ZEB2 / Fold change vs veh, ZEB2 / RFU, NRIP1 / Fold change vs veh, NRIP1 / RFU, PTTG1IP / Fold change vs veh, PTTG1IP / RFU, CAPN2 / Fold change vs veh, CAPN2 / RFU, MED14 / Fold change vs veh, MED14 / RFU, SNORA58 / Fold change vs veh, SNORA58 / RFU, C1orf63 / Fold change vs veh, C1orf63 / RFU, LRRFIP1 / Fold change vs veh, LRRFIP1 / RFU, NDUFAF7 / Fold change vs veh, NDUFAF7 / RFU, SLC12A2 / Fold change vs veh, SLC12A2 / RFU, IBTK / Fold change vs veh, IBTK / RFU, ESF1 / Fold change vs veh, ESF1 / Fold change vs veh, TMEM50B / RFU, TAOK1 / Fold change vs veh, TAOK1 / RFU, ACBD3 / Fold change vs veh, ACBD3 / RFU, TMA16 / Fold change vs veh, TMA16 / RFU, RWDD3 / Fold change vs veh, RWDD3 / RFU, BCAT1 / Fold change vs veh, BCAT1 / RFU, EDEM3 / Fold change vs veh, EDEM3 / RFU, TMEM33 / Fold change vs veh, TMEM33 / RFU, WDR75 / Fold change vs veh, WDR75 / RFU, AHCTF1 / Fold change vs veh, AHCTF1 / RFU, TFRC / Fold change vs veh, TFRC / RFU, ZDHHC17 / Fold change vs veh, ZDHHC17 / RFU, NOM1 / Fold change vs veh, NOM1 / RFU, ARL8B / Fold change vs veh, ARL8B / RFU, ZBTB11 / Fold change vs veh, ZBTB11 / RFU, TAMM41 / Fold change vs veh, TAMM41 / RFU, KIAA1704 /// LOC100996395 / Fold change vs veh, KIAA1704 /// LOC100996395 / RFU, ING1 / Fold change vs veh, ING1 / RFU, TRMT61B / Fold change vs veh, TRMT61B / RFU, FUBP3 / Fold change vs veh, FUBP3 / RFU, TP53 / Fold change vs veh, TP53 / RFU, TNKS2 / Fold change vs veh, TNKS2 / RFU, ZFP14 / Fold change vs veh, ZFP14 / RFU, ACTR2 / Fold change vs veh, ACTR2 / RFU, PPP3R1 / Fold change vs veh, PPP3R1 / RFU, PIK3R1 / Fold change vs veh, PIK3R1 / RFU, HNRNPA1 / Fold change vs veh, HNRNPA1 / RFU, RNF170 / Fold change vs veh, RNF170 / RFU, ZNF28 / Fold change vs veh, ZNF28 / RFU, RNGTT / Fold change vs veh, RNGTT / RFU, OGT / Fold change vs veh, OGT / RFU, BRD1 / Fold change vs veh, BRD1 / RFU, MARS / Fold change vs veh, MARS / RFU, ZNF655 / Fold change vs veh, ZNF655 / RFU, FAHD1 / Fold change vs veh, FAHD1 / RFU, BDP1 / Fold change vs veh, BDP1 / RFU, LRRCC1 / Fold change vs veh, LRRCC1 / RFU, ARID1A / Fold change vs veh, ARID1A / RFU, ZNF146 / Fold change vs veh, ZNF146 / RFU, ZNF330 / Fold change vs veh, ZNF330 / RFU, GPN3 / Fold change vs veh, GPN3 / RFU, C9orf123 / Fold change vs veh, C9orf123 / RFU, N4BP2L2 / Fold change vs veh, N4BP2L2 / RFU, ARFIP1 / Fold change vs veh, ARFIP1 / RFU, FAM179B / Fold change vs veh, FAM179B / RFU, BCL10 / Fold change vs veh, BCL10 / RFU, UHRF1BP1L / Fold change vs veh, UHRF1BP1L / RFU, BET1 / Fold change vs veh, BET1 / RFU, CNOT2 / Fold change vs veh, CNOT2 / RFU, ZNF268 / Fold change vs veh, ZNF268 / Fold change vs veh, ZNF507 / RFU, DGCR2 / Fold change vs veh, DGCR2 / RFU, WDSUB1 / Fold change vs veh, WDSUB1 / Fold change vs veh, HSP90B1 /// MIR3652 / RFU, ADSS / Fold change vs veh, ADSS / RFU, GK / Fold change vs veh, GK / RFU, ZNF148 / Fold change vs veh, ZNF148 / RFU, TAF9 / Fold change vs veh, TAF9 / RFU, SLC1A5 / Fold change vs veh, SLC1A5 / RFU, SLMO2 / Fold change vs veh, SLMO2 / RFU, ABCC4 / Fold change vs veh, ABCC4 / RFU, LOC101060439 /// RAP1B / Fold change vs veh, LOC101060439 /// RAP1B / RFU, RFX7 / Fold change vs veh, RFX7 / RFU, GTPBP10 / Fold change vs veh, GTPBP10 / RFU, CNEP1R1 / Fold change vs veh, CNEP1R1 / RFU, BIVM-ERCC5 /// ERCC5 / Fold change vs veh, BIVM-ERCC5 /// ERCC5 / RFU, ILF3 / Fold change vs veh, ILF3 / RFU 11762660_at / Fold change /veh 11762660_at / RFU VCAN (11757783_s_at) / Fold change /veh VCAN (11757783_s_at) / RFU DDX43 (11728927_at) / Fold change /veh DDX43 (11728927_at) / RFU KRT8 (11758188_x_at) / Fold change /veh KRT8 (11758188_x_at) / RFU NKD1 (11759106_at) / Fold change /veh NKD1 (11759106_at) / RFU SRD5A1 (11742802_a_at) / Fold change /veh SRD5A1 (11742802_a_at) / RFU TPSAB1 /// TPSB2 (11721975_s_at) / Fold change /veh TPSAB1 /// TPSB2 (11721975_s_at) / RFU GSTM3 (11746129_a_at) / Fold change /veh GSTM3 (11746129_a_at) / RFU IL23R (11737362_x_at) / Fold change /veh IL23R (11737362_x_at) / RFU TMEM51 (11727254_a_at) / Fold change /veh TMEM51 (11727254_a_at) / RFU PIWIL2 (11732686_x_at) / Fold change /veh PIWIL2 (11732686_x_at) / RFU ORM1 (11744905_x_at) / Fold change /veh ORM1 (11744905_x_at) / RFU CCDC152 (11743942_at) / Fold change /veh CCDC152 (11743942_at) / RFU ECM1 (11717891_a_at) / Fold change /veh ECM1 (11717891_a_at) / RFU IL23R (11748794_a_at) / Fold change /veh IL23R (11748794_a_at) / RFU TNFAIP8L3 (11732012_x_at) / Fold change /veh TNFAIP8L3 (11732012_x_at) / RFU MBOAT4 (11741988_at) / Fold change /veh MBOAT4 (11741988_at) / RFU 11764193_at / Fold change /veh 11764193_at / RFU TMEM53 (11763286_at) / Fold change /veh TMEM53 (11763286_at) / RFU MAGEB2 (11727129_at) / Fold change /veh MAGEB2 (11727129_at) / RFU TMEM200A (11744735_a_at) / Fold change /veh TMEM200A (11744735_a_at) / RFU CCDC152 (11751479_a_at) / Fold change /veh CCDC152 (11751479_a_at) / RFU FAM211A (11726209_a_at) / Fold change /veh FAM211A (11726209_a_at) / RFU RGS16 (11746705_a_at) / Fold change /veh RGS16 (11746705_a_at) / RFU VCAN (11755009_s_at) / Fold change /veh VCAN (11755009_s_at) / RFU RHOB (11743442_s_at) / Fold change /veh RHOB (11743442_s_at) / RFU RGS16 (11720943_a_at) / Fold change /veh RGS16 (11720943_a_at) / RFU RGS16 (11720944_at) / Fold change /veh RGS16 (11720944_at) / RFU, VPS4B / Fold change vs veh, VPS4B / RFU, CREB1 / Fold change vs veh, CREB1 / RFU, DNAJC13 / Fold change vs veh, DNAJC13 / RFU, GNAQ / Fold change vs veh, GNAQ / RFU, CDK5R1 / Fold change vs veh, CDK5R1 / RFU, ZRANB3 / Fold change vs veh, ZRANB3 / RFU, CUL4A / Fold change vs veh, CUL4A / RFU, CCNY / Fold change vs veh, CCNY / RFU, UFL1 / Fold change vs veh, UFL1 / RFU, COG3 / Fold change vs veh, COG3 / RFU, DIAPH2 / Fold change vs veh, DIAPH2 / RFU, SKA2 / Fold change vs veh, SKA2 / RFU, AFF3 / Fold change vs veh, AFF3 / RFU, LMF1 / Fold change vs veh, LMF1 / RFU, IPO11 / Fold change vs veh, IPO11 / RFU, DFFB / Fold change vs veh, DFFB / RFU, FOXP1 / Fold change vs veh, FOXP1 / RFU, CARD8 / Fold change vs veh, CARD8 / RFU, STRN3 / Fold change vs veh, STRN3 / RFU, ADK / Fold change vs veh, ADK / RFU, RASSF2 / Fold change vs veh, RASSF2 / RFU, WIPF1 / Fold change vs veh, WIPF1 / RFU, LARP1B / Fold change vs veh, LARP1B / RFU, RASA1 / Fold change vs veh, RASA1 / RFU, RB1 / Fold change vs veh, RB1 / RFU, PPFIA1 / Fold change vs veh, PPFIA1 / RFU, MAT2A / Fold change vs veh, MAT2A / RFU, CCT5 / Fold change vs veh, CCT5 / RFU, WDR92 / Fold change vs veh, WDR92 / RFU, CUX1 / Fold change vs veh, CUX1 / RFU, TTC7A / Fold change vs veh, TTC7A / RFU, TMEM135 / Fold change vs veh, TMEM135 / RFU, DEPTOR / Fold change vs veh, DEPTOR / RFU, CPM / Fold change vs veh, CPM / RFU, DNAJB6 / Fold change vs veh, DNAJB6 / RFU, CACNA2D3 / Fold change vs veh, CACNA2D3 / RFU, DTX4 / Fold change vs veh, DTX4 / RFU, TFCP2 / Fold change vs veh, TFCP2 / RFU, GMCL1 /// GMCL1P1 / Fold change vs veh, GMCL1 /// GMCL1P1 / RFU, AEBP2 / Fold change vs veh, AEBP2 / RFU, SNHG1 /// SNORD22 /// SNORD25 /// SNORD26 /// SNORD27 /// SNORD28 /// SNORD29 /// SNORD31 / Fold change vs veh, SNHG1 /// SNORD22 /// SNORD25 /// SNORD26 /// SNORD27 /// SNORD28 /// SNORD29 /// SNORD31 / Fold change (Aza/veh), C12orf56 (ProbeSet 11735607_a_at) / Fold change (ACY-1035/veh), C12orf56 (ProbeSet 11735607_a_at) / Fold change (Aza/veh), FGFR1OP (ProbeSet 11751329_s_at) / Fold change (ACY-1035/veh), FGFR1OP (ProbeSet 11751329_s_at) / Fold change (Aza/veh), VPS36 (ProbeSet 11739960_a_at) / Fold change (ACY-1035/veh), VPS36 (ProbeSet 11739960_a_at) / RFU SYPL1 (11715823_x_at) / Fold change /veh SYPL1 (11715823_x_at) / RFU IGFBP7 (11715501_s_at) / Fold change /veh IGFBP7 (11715501_s_at) / RFU REEP3 (11722064_at) / Fold change /veh REEP3 (11722064_at) / RFU IGLL1 (11728026_x_at) / Fold change /veh IGLL1 (11728026_x_at): dose or concentration left out as unconfirmed
# Conditions: MV-4-11 cells, 48 hours
smiles,measurement,value
Nc1ccc(-c2cccs2)cc1NC(=O)c1ccc2c(c1)cc(C1CC1)n2CCN1CCOCC1 [ACY-1035],Fold change /veh MBOAT4 (11741988_at),1.14
